Key:
[1] = Kinetic thiol consumption assay with model thiol glutathione; type: physicochemical; design: Rate constant with glutathione (k(GSH)): unit not given here; conditions: for Rate constant with glutathione (k(GSH)): 500 μM ligand, 5 μM thiol, phosphate buffer pH 8; for Rate constant with Glutathione: Protein: Glutathione, cysteine position NA, in h-1
Outline: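 First, 5 μM glutathione in degassed phosphate buffer (pH 8) receives immobilized TCEP beads (2% v/v). Then acrylamide is added and plates incubate 1 h at room temperature. Finally, fluorescence (380/470 nm) is normalized and fitted to first-order decay for rate constants.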

Cdk2(S276C) (C177A) = target: T1, Cdk2(S276C) (C177A) (Homo sapiens, UniProt P24941, C177A/S276C); test: Kinetic thiol consumption assay with Cdk2 mutant S276C; type: binding; design: key to Rate enhancement, Cdk2 S276C: rate constant with Cdk2 ÷ rate constant with model thiol (fold); conditions: additional mutation C177A; for Rate constant with Cdk2 S276C: Protein: Cdk2, cysteine position S276C, in h^-1
T1 construct: poly-histidine; made in house; host or cells: E. coli
Outline: (§1)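 Read-out is fluorescence at 380/470 nm, taken after 1 h at room temperature and normalized to a DMSO/thiol-only control over time. Thiol (5 μM Cdk2 mutant or model thiol) was in degassed pH 8 phosphate buffer with 2% v/v TCEP beads. Acrylamide rate constants for Cdk2 were divided by those with model thiol.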

Cdk2[C177A, F80C, K278C] = target: T2, Cdk2[C177A, F80C, K278C] (Homo sapiens, UniProt P24941, C177A/F80C/K278C); test: Kinetic thiol consumption assay with mutant Cdk2 as model thiol; type: binding; design: unit not given here; conditions: 500 μM ligand, 5 μM thiol, phosphate buffer pH 8
T2 construct: poly-histidine; made in house; host or cells: E. coli
Outline: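 First-order rate constants were derived by exponential-decay fitting of DMSO/thiol-normalized fluorescence (380/470 nm) over time at room temperature. Thiol was 5 μM E. coli-expressed His-tagged Cdk2 mutant C177A/F80C/K278C in degassed pH 8 phosphate buffer containing 2% v/v TCEP beads.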

Cdk2(S181C) (C177A) = target: T3, Cdk2(S181C) (C177A) (Homo sapiens, UniProt P24941, C177A/S181C); test: Kinetic thiol consumption assay with Cdk2 mutant S181C; type: binding; design: key to Rate enhancement, Cdk2 S181C: rate constant with Cdk2 ÷ rate constant with model thiol (fold); conditions: additional mutation C177A; for Rate constant with Cdk2 S181C: Protein: Cdk2, cysteine position S181C, in h^-1
T3 construct: poly-histidine; made in house; host or cells: E. coli
Outline: as §1

Cdk2(H71C) (C177A) = target: T4, Cdk2(H71C) (C177A) (Homo sapiens, UniProt P24941, C177A/H71C); test: Kinetic thiol consumption assay with Cdk2 mutant H71C; type: binding; design: key to Rate enhancement, Cdk2 H71C: rate constant with Cdk2 ÷ rate constant with model thiol (fold); conditions: additional mutation C177A; for Rate constant with Cdk2 H71C: Protein: Cdk2, cysteine position H71C, in h^-1
T4 construct: poly-histidine; made in house; host or cells: E. coli
Outline: as §1

Cdk2(T182C) (C177A) = target: T5, Cdk2(T182C) (C177A) (Homo sapiens, UniProt P24941, C177A/T182C); test: Kinetic thiol consumption assay with Cdk2 mutant T182C; type: binding; design: key to Rate enhancement, Cdk2 T182C: rate constant with Cdk2 ÷ rate constant with model thiol (fold); conditions: additional mutation C177A; for Rate constant with Cdk2 T182C: Protein: Cdk2, cysteine position T182C, in h^-1
T5 construct: poly-histidine; made in house; host or cells: E. coli
Outline: as §1

Cdk2(R122C) (C177A) = target: T6, Cdk2(R122C) (C177A) (Homo sapiens, UniProt P24941, C177A/R122C); test: Kinetic thiol consumption assay with Cdk2 mutant R122C; type: binding; design: key to Rate enhancement, Cdk2 R122C: rate constant with Cdk2 ÷ rate constant with model thiol (fold); conditions: additional mutation C177A; for Rate constant with Cdk2 R122C: Protein: Cdk2, cysteine position R122C, in h-1
T6 construct: poly-histidine; made in house; host or cells: E. coli
Outline: as §1

Cdk2(N272C) (C177A) = target: T7, Cdk2(N272C) (C177A) (Homo sapiens, UniProt P24941, C177A/N272C); test: Kinetic thiol consumption assay with Cdk2 mutant N272C; type: binding; design: key to Rate enhancement, Cdk2 N272: rate constant with Cdk2 ÷ rate constant with model thiol (fold); conditions: for Rate enhancement, Cdk2 N272: Cdk2 N272, additional mutation C177A; for Rate constant with Cdk2 N272C: Protein: Cdk2, cysteine position N272C, additional mutation C177A, in h^-1
T7 construct: poly-histidine; made in house; host or cells: E. coli
Outline: as §1

Cdk2(C177A, F80C) = target: T8, Cdk2(C177A, F80C) (Homo sapiens, UniProt P24941, C177A/F80C); test: Kinetic thiol consumption assay with Cdk2 mutant F80C, incl. kobs versus concentration (Kd, k2); type: binding; design: key to Rate enhancement, Cdk2 F80C: Cdk2 rate constant divided by model-thiol rate constant; conditions: additional mutation C177A; for Rate constant with Cdk2 F80C: Protein: Cdk2, cysteine position F80C, in h^-1
T8 construct: poly-histidine; made in house; host or cells: E. coli
Outline: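 His-tagged Cdk2(C177A/F80C) from E. coli or model thiol, 5 μM in degassed phosphate buffer pH 8 with TCEP beads, reacted with acrylamide ligands; fluorescence (ex/em 380/470 nm) normalized to DMSO control and fitted to first-order decay for kobs. Kd and k2 obtained from hyperbolic fit of kobs versus ligand concentration.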

[2] = target: T9, human cyclin-dependent kinase 2 (Cdk2) (Homo sapiens, UniProt P24941); test: Kinetic thiol consumption assay with wild type Cdk2 (C177); type: binding; design: key to Rate enhancement, Cdk2 WT: k(Cdk2) divided by k(model thiol); Rate constant with Cdk2 (k(Cdk2)): unit not given here; conditions: for Rate constant with Cdk2 (k(Cdk2)): 500 μM ligand, 5 μM thiol, phosphate buffer pH 8; for Rate enhancement, Cdk2 WT: no additional mutations; for Rate constant with Cdk2 WT: Protein: Cdk2, cysteine position WT, in h^-1; for k(Cdk2)/k(Cdk2_mut) rate enhancement: model thiol Cdk2[C177A, F80C, K278C]; for k(Cdk2)/k(GSH) rate enhancement: model thiol glutathione
T9 construct: poly-histidine; made in house; host or cells: E. coli
Outline: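 His-tagged human Cdk2 (single surface cysteine C177), expressed in E. coli, or a model thiol at 5 μM in degassed phosphate buffer pH 8 was pre-treated with immobilized TCEP beads (2% v/v) before acrylamide addition. Fluorescence (ex/em 380/470 nm) was read after 1 h at room temperature, normalized to DMSO/thiol-only control and plotted versus time.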

| SMILES | Rate enhancement, Cdk2 S276C (Cdk2(S276C) (C177A)) | Rate constant with Cdk2 S276C (Cdk2(S276C) (C177A)) | Rate constant with Cdk2[C177A, F80C, K278C] (k(Cdk2_mut)) (Cdk2[C177A, F80C, K278C]) | Rate enhancement, Cdk2 S181C (Cdk2(S181C) (C177A)) | Rate enhancement, Cdk2 H71C (Cdk2(H71C) (C177A)) | Rate enhancement, Cdk2 T182C (Cdk2(T182C) (C177A)) | Rate constant with Cdk2 T182C (Cdk2(T182C) (C177A)) | Rate enhancement, Cdk2 R122C (Cdk2(R122C) (C177A)) | Rate constant with Cdk2 R122C (Cdk2(R122C) (C177A)) | Rate enhancement, Cdk2 N272 (Cdk2(N272C) (C177A)) | Rate constant with Cdk2 N272C (Cdk2(N272C) (C177A)) | Rate enhancement, Cdk2 F80C (Cdk2(C177A, F80C)) | Rate constant with Cdk2 F80C (Cdk2(C177A, F80C)) | Rate constant with Cdk2 (k(Cdk2)) [2] | Rate enhancement, Cdk2 WT [2] | Rate constant with Cdk2 WT [2] | k(Cdk2)/k(Cdk2_mut) rate enhancement [2] | k(Cdk2)/k(GSH) rate enhancement [2] | Rate constant with glutathione (k(GSH)) [1] | Rate constant with Glutathione [1] | other results |
| --- | --- | --- | --- | --- | --- | --- | --- | --- | --- | --- | --- | --- | --- | --- | --- | --- | --- | --- | --- | --- | --- |
| C=CC(=O)NCC1CCCN1S(=O)(=O)c1ccc(C)cc1 (stereo not shown) [CA-118] | 0.4087 | 0.002454 | 0.00415 | 4.792 | 0.1972 | 0 | – | 0.3071 | 0.001844 | 61.33 | 0.3682 | 0.6003 | 0.003604 | 0.00698 | 1.749 | 0.0105 | 1.682 | 2.491 | 0.0028 | 0.006004 | Rate constant with Cdk2 S181C (Cdk2(S181C) (C177A)): 0.02877; Rate constant with Cdk2 H71C (Cdk2(H71C) (C177A)): 0.001184 |
| C=CC(=O)N1CCC2(CCCN(Cc3ccccc3)C2)C1 (stereo not shown) [CA-141] | 0 | – | 0.00257 | 0.1935 | 0 | 0.5125 | 0.009235 | 0.2386 | 0.0043 | 0.2507 | 0.004517 | 0.09517 | 0.001715 | 0.00693 | 0.3847 | 0.006933 | 2.693 | 0.5009 | 0.01384 | 0.01802 | Rate constant with Cdk2 S181C (Cdk2(S181C) (C177A)): 0.003487 |
| C=CC(=O)Nc1nc2cc3c(cc2s1)OC(F)(F)O3 [CA-142] | 3.68 | 0.07463 | 0.02268 | 0.4029 | 0.1797 | 12.86 | 0.2609 | 0.1319 | 0.002674 | 0.3071 | 0.006229 | 9.635 | 0.1954 | 0.03086 | 1.522 | 0.03086 | 1.361 | 1.519 | 0.02031 | 0.02028 | Rate constant with Cdk2 S181C (Cdk2(S181C) (C177A)): 0.00817; Rate constant with Cdk2 H71C (Cdk2(H71C) (C177A)): 0.003644 |
| C=CC(=O)N1CCC2CCC(C1)N2C (stereo not shown) [CA-143] | 0.6344 | 0.0186 | 0.00505 | 0.9178 | 0.08025 | 2.359 | 0.06917 | 0.2049 | 0.006009 | 0.4942 | 0.01449 | 0.1014 | 0.002972 | 0.01115 | 0.3803 | 0.01115 | 2.207 | 0.3805 | 0.0293 | 0.02932 | Rate constant with Cdk2 S181C (Cdk2(S181C) (C177A)): 0.02691; Rate constant with Cdk2 H71C (Cdk2(H71C) (C177A)): 0.002353 |

The next lines start with results.

| Rate enhancement, Cdk2 S276C (Cdk2(S276C) (C177A)) | Rate constant with Cdk2 S276C (Cdk2(S276C) (C177A)) | Rate constant with Cdk2[C177A, F80C, K278C] (k(Cdk2_mut)) (Cdk2[C177A, F80C, K278C]) | Rate enhancement, Cdk2 S181C (Cdk2(S181C) (C177A)) | Rate enhancement, Cdk2 H71C (Cdk2(H71C) (C177A)) | Rate enhancement, Cdk2 T182C (Cdk2(T182C) (C177A)) | Rate constant with Cdk2 T182C (Cdk2(T182C) (C177A)) | Rate enhancement, Cdk2 R122C (Cdk2(R122C) (C177A)) | Rate constant with Cdk2 R122C (Cdk2(R122C) (C177A)) | Rate enhancement, Cdk2 N272 (Cdk2(N272C) (C177A)) | Rate constant with Cdk2 N272C (Cdk2(N272C) (C177A)) | Rate enhancement, Cdk2 F80C (Cdk2(C177A, F80C)) | Rate constant with Cdk2 F80C (Cdk2(C177A, F80C)) | Rate constant with Cdk2 (k(Cdk2)) [2] | Rate enhancement, Cdk2 WT [2] | Rate constant with Cdk2 WT [2] | k(Cdk2)/k(Cdk2_mut) rate enhancement [2] | k(Cdk2)/k(GSH) rate enhancement [2] | SMILES | Rate constant with glutathione (k(GSH)) [1] | Rate constant with Glutathione [1] | other results |
| --- | --- | --- | --- | --- | --- | --- | --- | --- | --- | --- | --- | --- | --- | --- | --- | --- | --- | --- | --- | --- | --- |
| 0.8141 | 0.008009 | 0.00407 | 0 | 0.1566 | 1.447 | 0.01424 | 0.3499 | 0.003442 | 0.5898 | 0.005802 | 0.1887 | 0.001856 | 0.00152 | 0.1544 | 0.001519 | 0.3735 | 0.2854 | C=CC(=O)NC1C2C3CCC(C3)C12 (stereo not shown) [CA-097] | 0.00533 | 0.009838 | Rate constant with Cdk2 H71C (Cdk2(H71C) (C177A)): 0.001541 |
| 3.196 | 0.08188 | 0.00546 | 0.8872 | 0.8002 | 4.766 | 0.1221 | 0.3481 | 0.008918 | 6.698 | 0.1716 | 0.5929 | 0.01519 | 0.01499 | 0.9446 | 0.0242 | 2.745 | 0.9287 | C=CC(=O)N1CC2CCCCCCC21 (stereo not shown) [CA-098] | 0.01614 | 0.02562 | Rate constant with Cdk2 S181C (Cdk2(S181C) (C177A)): 0.02273; Rate constant with Cdk2 H71C (Cdk2(H71C) (C177A)): 0.0205 |
| 0.7543 | 0.002984 | 0.00151 | 1.69 | 0 | 3.971 | 0.01571 | 0.2819 | 0.001115 | 3.031 | 0.01199 | 0 | – | 0.00145 | 0.5857 | 0.002317 | 0.9576 | 0.6367 | C=CC(=O)N1CCC(c2nnc3n2CCC3)CC1 [CA-106] | 0.00227 | 0.003956 | Rate constant with Cdk2 S181C (Cdk2(S181C) (C177A)): 0.006686 |
